According to patent US10201552B2, “Method of increasing the bioavailability of an HIV drug” (HOWARD UNIVERSITY, priority 2013, dated 2019):

Experiments:
[1] = administered orally as disoproxil ester prodrug; cited from earlier work
[2] = tested on: Unactivated Human T-Cells; experiment: Uptake of radio labeled Tenofovir in human T-cells in presence and absence of ABC efflux pump inhibitors; format: cell-based; conditions: with specific MRP, BCRP and Pgp inhibitors vs without
Procedure: ABC efflux pump inhibitors. Briefly, human T-cells in the culture media (1 million/mL) were transferred to 15 mL centrifuge tubes. Radio labeled Tenofovir was added to the control tube and radio labeled Tenofovir along with defined concentrations of efflux pump inhibitors were added to the treatment tubes. The tubes were incubated for 15 minutes under culture conditions (37° C., 5% CO2/95% relative humidity). Following incubation, the tubes were centrifuged at 2000 rpm for 15 min and the supernatant is discarded. Ice cold stop solution (210 mM KCl, 2 mM HEPES [pH 7.4]) was added to stop the reaction. The cells were resuspended in stop solution to ensure washing and centrifuged at 2000 rpm for 15 min. The treatment with stop solution, washing and centrifugation is repeated to ensure through washing. 1 mL lysis solution (0.3 M NaOH, 0.1% Triton X-100) was added to the cell pellet and samples and incubated overnight to ensure complete cell lysis. Intracellular concentrations were analyzed by Beckman LS 6500 automated Scintillation Counter.

**Q.** Which bioavailability [1] does the source give for `C[C@H](Cn1cnc2c(N)ncnc21)OCP(=O)(O)O` [Tenofovir] here?
**A.** ≥ 20%

**Q.** What about the “intracellular accumulation of Tenofovir” value [2] of the same compound?
**A.** significant increase
